In PubChem BioAssay (NCI):
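Five concentrations, 48 hours, 96-well plates. The concentration for 50% growth inhibition is given as GI50. TGI is the concentration that stops growth completely.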

Legend:
Test in all cases: DTP human tumour cell line panel, 48 h
SF-295 CNS = tested on: SF-295 CNS
IGROV1 ovarian = tested on: IGROV1 ovarian
TK-10 renal = tested on: TK-10 renal
MCF7 breast = tested on: MCF7 breast
A498 renal = tested on: A498 renal
SF-539 CNS = tested on: SF-539 CNS
ACHN renal = tested on: ACHN renal
U251 CNS = tested on: U251 CNS
SW-620 colon = tested on: SW-620 colon
T-47D breast = tested on: T-47D breast

Compound: CN1CCN(CC(=O)N2c3cccc4cccc(c34)N(C(=O)CN3CCN(C)CC3)C2c2cn(-c3ccccc3)nc2-c2cccc([N+](=O)[O-])c2)CC1
- GI50 (SF-295 CNS): 1.9 µM
- TGI (SF-295 CNS): 3.73 µM
- GI50 (IGROV1 ovarian): 1.73 µM
- TGI (IGROV1 ovarian): 3.71 µM
- GI50 (TK-10 renal): 2.42 µM
- TGI (TK-10 renal): 5.61 µM
- GI50 (MCF7 breast): 1.75 µM
- TGI (MCF7 breast): 3.39 µM
- GI50 (A498 renal): 1.92 µM
- TGI (A498 renal): 3.95 µM
- GI50 (SF-539 CNS): 1.69 µM
- TGI (SF-539 CNS): 3.19 µM
- GI50 (ACHN renal): 2.22 µM
- TGI (ACHN renal): 5.33 µM
- GI50 (U251 CNS): 1.9 µM
- TGI (U251 CNS): 4 µM
- GI50 (SW-620 colon): 1.91 µM
- TGI (SW-620 colon): 4.37 µM
- GI50 (T-47D breast): 1.97 µM
- TGI (T-47D breast): 4.34 µM

Compound: Cc1cc(N(CCOS(C)(=O)=O)CCOS(C)(=O)=O)ccc1C=Nc1ccc(-c2csc(-c3ccc(Br)cc3)n2)cc1
- TGI (SF-295 CNS): 50.5 µM
- TGI (IGROV1 ovarian): 22.5 µM
- TGI (TK-10 renal): 36.9 µM
- TGI (MCF7 breast): 43.8 µM
- TGI (A498 renal): 6.4 µM
- TGI (SF-539 CNS): 9.64 µM
- TGI (ACHN renal): 13.8 µM
- TGI (U251 CNS): 60.5 µM
- TGI (SW-620 colon): > 100 µM
- TGI (T-47D breast): 80.1 µM

Compound: Oc1c(I)cc(I)cc1CN(Cc1ccccn1)Cc1ccccn1
- GI50 (SF-295 CNS): 0.658 µM
- TGI (SF-295 CNS): > 27.1 µM
- GI50 (IGROV1 ovarian): 1.12 µM
- TGI (IGROV1 ovarian): 12.6 µM
- GI50 (TK-10 renal): 0.367 µM
- TGI (TK-10 renal): 11.7 µM
- GI50 (MCF7 breast): 0.548 µM
- TGI (MCF7 breast): > 39.9 µM
- GI50 (A498 renal): 1.29 µM
- TGI (A498 renal): 6.19 µM
- GI50 (SF-539 CNS): 0.855 µM
- TGI (SF-539 CNS): 10 µM
- GI50 (ACHN renal): 0.502 µM
- TGI (ACHN renal): 6.98 µM
- GI50 (U251 CNS): 0.419 µM
- TGI (U251 CNS): 11.7 µM
- GI50 (SW-620 colon): 0.847 µM
- TGI (SW-620 colon): 23.5 µM
- GI50 (T-47D breast): 1.34 µM
- TGI (T-47D breast): 10.6 µM

Compound: CCN1CCN(c2ccc(Nc3ncc4ccc5ncn(C(C)C)c5c4n3)nc2)CC1
- GI50 (SF-295 CNS): 0.224 µM
- TGI (SF-295 CNS): 0.794 µM
- GI50 (IGROV1 ovarian): 0.0347 µM
- TGI (IGROV1 ovarian): 1.6 µM
- GI50 (TK-10 renal): 0.0359 µM
- TGI (TK-10 renal): 0.873 µM
- GI50 (MCF7 breast): < 0.0109 µM
- TGI (MCF7 breast): 0.848 µM
- GI50 (A498 renal): < 0.0337 µM
- TGI (A498 renal): 0.241 µM
- GI50 (SF-539 CNS): 0.171 µM
- TGI (SF-539 CNS): 0.394 µM
- GI50 (ACHN renal): 0.0402 µM
- TGI (ACHN renal): 10.6 µM
- GI50 (U251 CNS): 0.108 µM
- TGI (U251 CNS): 3.94 µM
- GI50 (SW-620 colon): 0.0352 µM
- TGI (SW-620 colon): 0.418 µM
- GI50 (T-47D breast): 0.199 µM
- TGI (T-47D breast): 7.3 µM

Compound: Cc1nc2sc(C(=O)Nc3cccc(Br)c3)c(N)c2cc1C(O)c1ccccc1 (stereo unspecified)
- GI50 (SF-295 CNS): 0.765 µM
- TGI (SF-295 CNS): 12.1 µM
- GI50 (IGROV1 ovarian): 1.94 µM
- TGI (IGROV1 ovarian): 16.6 µM
- GI50 (TK-10 renal): 2.22 µM
- TGI (TK-10 renal): 26.7 µM
- GI50 (MCF7 breast): 0.372 µM
- TGI (MCF7 breast): 17 µM
- GI50 (A498 renal): 0.219 µM
- TGI (A498 renal): 0.746 µM
- GI50 (SF-539 CNS): 0.558 µM
- TGI (SF-539 CNS): 5.4 µM
- GI50 (ACHN renal): 0.768 µM
- TGI (ACHN renal): 14.7 µM
- GI50 (U251 CNS): 0.52 µM
- TGI (U251 CNS): > 70.9 µM
- GI50 (SW-620 colon): 0.375 µM
- TGI (SW-620 colon): > 38 µM
- GI50 (T-47D breast): 0.665 µM
- TGI (T-47D breast): 31 µM

Compound: Nc1nc(-c2ccc(Cl)cc2)cc(-c2ccccc2)c1-c1nc2ccccc2o1
- GI50 (SF-295 CNS): 15 µM
- TGI (SF-295 CNS): 35.6 µM
- GI50 (IGROV1 ovarian): 12.5 µM
- TGI (IGROV1 ovarian): 49 µM
- GI50 (TK-10 renal): 3.02 µM
- TGI (TK-10 renal): 8.95 µM
- GI50 (MCF7 breast): 3.1 µM
- TGI (MCF7 breast): > 100 µM
- GI50 (A498 renal): 15.8 µM
- TGI (A498 renal): 30.5 µM
- GI50 (SF-539 CNS): 16.1 µM
- TGI (SF-539 CNS): 32.2 µM
- GI50 (ACHN renal): 8.8 µM
- TGI (ACHN renal): 23.3 µM
- GI50 (U251 CNS): 4.49 µM
- TGI (U251 CNS): 18.7 µM
- GI50 (SW-620 colon): 13.4 µM
- TGI (SW-620 colon): 31.1 µM
- GI50 (T-47D breast): 10.2 µM
- TGI (T-47D breast): 27.2 µM

Compound: COc1ccc2nc(-c3cc4c([nH]c5ccccc54)c(-c4ccc(F)c(F)c4)n3)[nH]c2c1
- GI50 (IGROV1 ovarian): 4.62 µM
- TGI (IGROV1 ovarian): 34.7 µM
- GI50 (TK-10 renal): 4.29 µM
- TGI (TK-10 renal): 17.3 µM
- GI50 (MCF7 breast): 3.23 µM
- TGI (MCF7 breast): 17.1 µM
- GI50 (A498 renal): 9.84 µM
- TGI (A498 renal): 56.6 µM
- GI50 (SF-539 CNS): 15.5 µM
- TGI (SF-539 CNS): 34.6 µM
- GI50 (ACHN renal): 3.2 µM
- TGI (ACHN renal): 12.6 µM
- GI50 (U251 CNS): 2.77 µM
- TGI (U251 CNS): 10.2 µM
- GI50 (SW-620 colon): 4.82 µM
- TGI (SW-620 colon): 23.7 µM
- GI50 (T-47D breast): 3.76 µM
- TGI (T-47D breast): 20 µM

Compound: COc1cc(C)c(NC(=O)CN(C)C)cc1Nc1nc(Nc2cccc(F)c2C(N)=O)c2cc[nH]c2n1
- GI50 (SF-295 CNS): 2.13 µM
- TGI (SF-295 CNS): 11.1 µM
- GI50 (IGROV1 ovarian): 1.91 µM
- TGI (IGROV1 ovarian): 5.81 µM
- GI50 (TK-10 renal): 1.93 µM
- TGI (TK-10 renal): 5.55 µM
- GI50 (MCF7 breast): 0.0138 µM
- TGI (MCF7 breast): 2.9 µM
- GI50 (A498 renal): 1.25 µM
- TGI (A498 renal): 6.02 µM
- GI50 (SF-539 CNS): 3.05 µM
- TGI (SF-539 CNS): 7.07 µM
- GI50 (ACHN renal): 3.81 µM
- TGI (ACHN renal): 7.35 µM
- GI50 (U251 CNS): 3.12 µM
- TGI (U251 CNS): 6.86 µM
- GI50 (SW-620 colon): 0.168 µM
- TGI (SW-620 colon): 3.49 µM
- GI50 (T-47D breast): 3.81 µM
- TGI (T-47D breast): 8.38 µM

Compound: Nc1nc(-c2ccccc2)cc(-c2ccc(Cl)cc2)c1-c1nc2ccccc2o1
- GI50 (SF-295 CNS): 20.5 µM
- TGI (SF-295 CNS): 37.7 µM
- GI50 (IGROV1 ovarian): 12.9 µM
- TGI (IGROV1 ovarian): 28.5 µM
- GI50 (TK-10 renal): 11.3 µM
- TGI (TK-10 renal): 27.1 µM
- GI50 (MCF7 breast): 2.31 µM
- TGI (MCF7 breast): 16.2 µM
- GI50 (A498 renal): 16.7 µM
- TGI (A498 renal): 30.3 µM
- GI50 (SF-539 CNS): 17.5 µM
- TGI (SF-539 CNS): 32.3 µM
- GI50 (ACHN renal): 11.1 µM
- TGI (ACHN renal): 23 µM
- GI50 (U251 CNS): 9.2 µM
- TGI (U251 CNS): 21 µM
- GI50 (SW-620 colon): 14.9 µM
- TGI (SW-620 colon): 29.3 µM
- GI50 (T-47D breast): 4.21 µM
- TGI (T-47D breast): 27.3 µM

Compound: Nc1ccc(-c2ccc(-c3nc4cc(Cl)c(Cl)cc4[nH]3)cc2)cc1
- GI50 (SF-295 CNS): 0.419 µM
- GI50 (IGROV1 ovarian): 12.1 µM
- TGI (IGROV1 ovarian): > 100 µM
- GI50 (TK-10 renal): 1.63 µM
- TGI (TK-10 renal): 37.4 µM
- GI50 (MCF7 breast): 0.377 µM
- TGI (MCF7 breast): > 100 µM
- GI50 (A498 renal): 18 µM
- TGI (A498 renal): > 70.7 µM
- GI50 (SF-539 CNS): 1.38 µM
- TGI (SF-539 CNS): > 51.5 µM
- GI50 (ACHN renal): 0.0833 µM
- TGI (ACHN renal): > 34.8 µM
- GI50 (U251 CNS): 12 µM
- TGI (U251 CNS): > 53.1 µM
- GI50 (SW-620 colon): < 0.0313 µM
- TGI (SW-620 colon): > 100 µM
- GI50 (T-47D breast): 0.275 µM
- TGI (T-47D breast): > 100 µM

Compound: COc1ccc(C(c2cc3c(cc2O)OCO3)N2CCOCC2)cc1OC (stereo unspecified)
- TGI (SF-295 CNS): 27.2 µM
- TGI (IGROV1 ovarian): 29.6 µM
- TGI (TK-10 renal): 26.1 µM
- TGI (MCF7 breast): > 100 µM
- TGI (SF-539 CNS): 28.3 µM
- TGI (ACHN renal): 23.5 µM
- TGI (U251 CNS): 21.4 µM
- TGI (SW-620 colon): 14.4 µM
- TGI (T-47D breast): 45.8 µM

Compound: O=C(O)CCSC(=S)Nc1ccc([N+](=O)[O-])cc1
- TGI (SF-295 CNS): > 100 µM
- TGI (IGROV1 ovarian): > 100 µM
- TGI (TK-10 renal): > 100 µM
- TGI (MCF7 breast): > 100 µM
- TGI (A498 renal): > 100 µM
- TGI (SF-539 CNS): > 75.5 µM
- TGI (ACHN renal): > 83 µM
- TGI (U251 CNS): > 100 µM
- TGI (SW-620 colon): > 100 µM
- TGI (T-47D breast): > 100 µM

Compound: Cn1c(=O)c2[nH]c(CCCCc3nc4c([nH]3)c(=O)n(C)c(=S)n4C)nc2n(C)c1=S
- TGI (SF-295 CNS): > 100 µM
- TGI (IGROV1 ovarian): > 100 µM
- TGI (TK-10 renal): > 100 µM
- TGI (MCF7 breast): > 100 µM
- TGI (A498 renal): > 100 µM
- TGI (SF-539 CNS): > 100 µM
- TGI (ACHN renal): > 100 µM
- TGI (U251 CNS): > 100 µM
- TGI (SW-620 colon): > 100 µM
- TGI (T-47D breast): > 100 µM
